Laboratory results: ChEMBL document CHEMBL1201862, “PubChem BioAssay data set” (2004)
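Protocol summary: plate cells (96-well), add compound at 5 concentrations, incubate 48 h, interpolate endpoints linearly. GI50: concentration for 50% inhibition of growth.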 The source made the active and inactive calls. No stated cut-off is given here; in the data, active = GI50 up to about 1.1 µM and inactive = higher.

Legend:
Assay in all cases: NCI anticancer screen, dose series, 48 h
786-0 = tested on: 786-0
A498 = tested on: A498
M14 = tested on: M14
NCI-H460 = tested on: NCI-H460
OVCAR-3 = tested on: OVCAR-3
SF-268 = tested on: SF-268
SF-295 = tested on: SF-295
SF-539 = tested on: SF-539
SN12C = tested on: SN12C
SNB-19 = tested on: SNB-19
U-251 = tested on: U-251
UACC-257 = tested on: UACC-257
NCI-H522 = tested on: NCI-H522
OVCAR-5 = tested on: OVCAR-5
SK-OV-3 = tested on: SK-OV-3

SMILES | GI50 (786-0) | GI50 (A498) | GI50 (M14) | GI50 (NCI-H460) | GI50 (OVCAR-3) | GI50 (SF-268) | GI50 (SF-295) | GI50 (SF-539) | GI50 (SN12C) | GI50 (SNB-19) | GI50 (U-251) | GI50 (UACC-257) | GI50 (NCI-H522) | GI50 (OVCAR-5) | GI50 (SK-OV-3)
COc1c(C)cc2c(c1O)C1C3[C@H]4SC[C@@]5(NCCC6=C5NC5C=CC=CC65)C(=O)OCC(c5c6c(c(C)c(OC(C)=O)c54)OCO6)N3[C@@H](O)C(C2)N1C (some centres undefined) | < 0.01 µM (active) | < 0.01 µM (active) | < 0.01 µM (active) | < 0.01 µM (active) | < 0.01 µM (active) | < 0.01 µM (active) | < 0.01 µM (active) | < 0.01 µM (active) | < 0.01 µM (active) | < 0.01 µM (active) | < 0.01 µM (active) | < 0.01 µM (active) |  |  | 
NC(CSSCC(N)Cc1ccccc1)Cc1ccccc1 (centres undefined) | 32.9 µM (inactive) | > 100 µM (inactive) | 26.4 µM (inactive) | 40.8 µM (inactive) | 33 µM (inactive) | 49.4 µM (inactive) | 41.5 µM (inactive) |  | 37.9 µM (inactive) | > 100 µM (inactive) | 84.1 µM (inactive) | 47.8 µM (inactive) | 15.7 µM (inactive) | 44.3 µM (inactive) | 85.7 µM (inactive)
NC1=NS(=O)(=O)Nc2nc(-c3ccc([N+](=O)[O-])cc3)[nH]c21 | > 100 µM (inactive) |  | > 100 µM (inactive) | > 100 µM (inactive) | > 100 µM (inactive) | > 100 µM (inactive) | > 100 µM (inactive) | > 100 µM (inactive) | > 100 µM (inactive) | > 100 µM (inactive) | > 100 µM (inactive) |  | > 100 µM (inactive) | > 100 µM (inactive) | > 100 µM (inactive)
N#CC1CCCCOCCOCCOCCOCCOCCCCCC1=O (centres undefined) | > 100 µM (inactive) | > 100 µM (inactive) | > 100 µM (inactive) | > 100 µM (inactive) | > 100 µM (inactive) | > 100 µM (inactive) | > 100 µM (inactive) |  | > 100 µM (inactive) | > 100 µM (inactive) | > 100 µM (inactive) | > 100 µM (inactive) | > 100 µM (inactive) | > 100 µM (inactive) | > 100 µM (inactive)
CCCCCCC(=O)OC[n+]1ccc2c(C)c3[nH]c4ccccc4c3c(C)c2c1 | 0.418 µM (active) | 1.01 µM (active) | 1.29 µM (inactive) | 0.0728 µM (active) | 1.21 µM (inactive) | 0.61 µM (active) | 0.836 µM (active) | 0.646 µM (active) | 0.404 µM (active) |  | 0.552 µM (active) | 1.79 µM (inactive) | 1.56 µM (inactive) | 1.71 µM (inactive) | 1.83 µM (inactive)
COCN1COCN(C)C1=O | > 100 µM (inactive) | > 100 µM (inactive) | > 100 µM (inactive) | > 100 µM (inactive) | > 100 µM (inactive) | > 100 µM (inactive) | > 100 µM (inactive) | > 100 µM (inactive) | > 100 µM (inactive) | > 100 µM (inactive) | > 100 µM (inactive) | > 100 µM (inactive) |  | > 100 µM (inactive) | > 100 µM (inactive)
COC(=O)/C(C#N)=C1\CCC(Nc2cccc(C(F)(F)F)c2)N1C (centres undefined) | > 100 µM (inactive) |  | > 100 µM (inactive) | > 100 µM (inactive) | > 100 µM (inactive) | > 100 µM (inactive) | > 100 µM (inactive) | > 100 µM (inactive) | > 100 µM (inactive) | > 100 µM (inactive) | > 100 µM (inactive) | > 100 µM (inactive) | > 100 µM (inactive) | > 100 µM (inactive) | 84.3 µM (inactive)
C/C(CCn1[nH]c(=O)ccc1=O)=N\O | > 100 µM (inactive) | > 100 µM (inactive) | > 100 µM (inactive) | > 100 µM (inactive) | > 100 µM (inactive) | > 100 µM (inactive) | > 100 µM (inactive) | > 100 µM (inactive) | > 100 µM (inactive) | > 100 µM (inactive) |  | > 100 µM (inactive) |  | > 100 µM (inactive) | 
COc1ccc(NC(=O)CC/C(CC(=O)c2ccco2)=N/NC(=O)C(N)=O)cc1 | > 100 µM (inactive) | 76.4 µM (inactive) | > 100 µM (inactive) | > 100 µM (inactive) | 46 µM (inactive) | 68.9 µM (inactive) | > 100 µM (inactive) | > 100 µM (inactive) | > 100 µM (inactive) | 56.8 µM (inactive) |  | 54.5 µM (inactive) | 53 µM (inactive) | > 100 µM (inactive) | > 100 µM (inactive)
COCC1C(=O)c2cc3c(cc2C12C=CC1(C=C2)OCCO1)OCO3 (centres undefined) | 2.13 µM (inactive) |  | 3.38 µM (inactive) | 13.8 µM (inactive) | 13.7 µM (inactive) | 3.86 µM (inactive) | 14.4 µM (inactive) | 15.6 µM (inactive) | 10.9 µM (inactive) |  | 3.67 µM (inactive) | 17.9 µM (inactive) | 1.63 µM (inactive) |  | 16.1 µM (inactive)
Cc1cc(Br)cc(C)c1NC(=O)C(=O)C(C(=O)c1ccncc1)C1OC(=O)c2ccccc21 (centres undefined) | > 100 µM (inactive) | > 100 µM (inactive) | > 100 µM (inactive) | > 100 µM (inactive) | > 100 µM (inactive) | > 100 µM (inactive) |  |  | > 100 µM (inactive) | > 100 µM (inactive) | > 100 µM (inactive) | > 100 µM (inactive) | > 100 µM (inactive) | > 100 µM (inactive) | > 100 µM (inactive)
CCCCCCCCCC(=O)NC(Cc1ccc(O)cc1)C(=O)NCCCNCCCCNCCCNC(=O)[C@@H](N)CCCN=C(N)N (some centres undefined) | 61.7 µM (inactive) |  | > 100 µM (inactive) | 15.5 µM (inactive) | > 100 µM (inactive) | 82.2 µM (inactive) | 29 µM (inactive) | 11 µM (inactive) | 60.7 µM (inactive) | 70.1 µM (inactive) | > 10 µM (inactive) | 44.5 µM (inactive) | 28.8 µM (inactive) |  | 36.6 µM (inactive)
COC(=O)c1cc(=O)nc2cc3cccccc3n12 | > 100 µM (inactive) | > 100 µM (inactive) | > 100 µM (inactive) | 59 µM (inactive) | > 100 µM (inactive) |  | > 100 µM (inactive) | > 100 µM (inactive) | > 100 µM (inactive) | > 100 µM (inactive) | > 100 µM (inactive) | > 100 µM (inactive) | > 100 µM (inactive) | > 100 µM (inactive) | > 100 µM (inactive)
O=C1CC(c2c[nH]c3ccccc23)C(=O)N1 (centres undefined) | > 100 µM (inactive) | > 100 µM (inactive) | > 100 µM (inactive) | > 100 µM (inactive) | > 100 µM (inactive) |  | > 100 µM (inactive) | > 100 µM (inactive) |  |  | > 100 µM (inactive) | > 100 µM (inactive) |  | > 100 µM (inactive) | > 100 µM (inactive)
CCOC(=O)CC1=Nc2ccccc2SC1 | > 100 µM (inactive) | > 100 µM (inactive) | > 100 µM (inactive) | > 100 µM (inactive) | > 100 µM (inactive) | 0.031 µM (active) | > 100 µM (inactive) | > 100 µM (inactive) | > 100 µM (inactive) | > 100 µM (inactive) | > 100 µM (inactive) | > 100 µM (inactive) | > 100 µM (inactive) | > 100 µM (inactive) | 
CSc1c([S+](C)[O-])[nH]c2cc(Br)cc(Br)c12 (centres undefined) | 16 µM (inactive) | 22.1 µM (inactive) | 25.6 µM (inactive) | 16.7 µM (inactive) | 20.6 µM (inactive) |  | 17.1 µM (inactive) | 22.4 µM (inactive) | 16.7 µM (inactive) |  | 0.0376 µM (active) | 33.3 µM (inactive) | 23.3 µM (inactive) |  | 27.9 µM (inactive)
N/N=c1/nc2n(c3ncccc13)C=CNN2 | > 100 µM (inactive) |  |  | > 100 µM (inactive) | > 100 µM (inactive) | > 100 µM (inactive) | > 100 µM (inactive) | > 100 µM (inactive) | > 100 µM (inactive) | > 100 µM (inactive) | > 100 µM (inactive) | > 100 µM (inactive) | > 100 µM (inactive) | > 100 µM (inactive) | > 100 µM (inactive)
C[C@@H](NC1CCC[C@@H]1O)c1ccccc1 (some centres undefined) | > 100 µM (inactive) |  | > 100 µM (inactive) | > 100 µM (inactive) | > 100 µM (inactive) |  | > 100 µM (inactive) |  | > 100 µM (inactive) | > 100 µM (inactive) | > 100 µM (inactive) | > 100 µM (inactive) |  | > 100 µM (inactive) | > 100 µM (inactive)
O=C(NO)C12C3C4C1C1C2C3C41C(=O)NO (centres undefined) | > 100 µM (inactive) | > 100 µM (inactive) | > 100 µM (inactive) | > 100 µM (inactive) | > 100 µM (inactive) | > 100 µM (inactive) | > 100 µM (inactive) | > 100 µM (inactive) | > 100 µM (inactive) | > 100 µM (inactive) | > 100 µM (inactive) |  | > 100 µM (inactive) | > 100 µM (inactive) | > 100 µM (inactive)
CCOC1=NC(=O)CC(c2ccccc2)S1 (centres undefined) | > 100 µM (inactive) | > 100 µM (inactive) | 68.1 µM (inactive) | > 100 µM (inactive) | > 100 µM (inactive) | > 100 µM (inactive) | > 100 µM (inactive) | > 100 µM (inactive) | > 100 µM (inactive) | > 100 µM (inactive) | 49.2 µM (inactive) | > 100 µM (inactive) |  | > 100 µM (inactive) | 
O=C(/C(=C\c1ccc(Cl)cc1)c1ccccc1)c1ccccc1 | 79.8 µM (inactive) | 65 µM (inactive) | 73.5 µM (inactive) | 53.8 µM (inactive) |  | > 100 µM (inactive) | 94.4 µM (inactive) | > 100 µM (inactive) | > 100 µM (inactive) |  | 65.5 µM (inactive) | 42.5 µM (inactive) | 31.6 µM (inactive) | 22.7 µM (inactive) | > 100 µM (inactive)
